Test results as given in patent US12649980B2, “Three-dimensional surface for protein and small molecule microarrays” (The Johns Hopkins University, priority 2019, dated 2026).

Key:
[1] = tested on: MCF-7; assay: [3H]-2DG uptake assay in MCF-7 cells; assay type: cell-based, human
Procedure: (§1) Hay, Nat. Rev. […] To determine whether RgA could inhibit glucose uptake in cancer cell lines in addition to A549, the impact of RgA on [3H]-2DG uptake in six other cancer cell lines, including HCC1954, MCF-7, PANC10.05, Jurkat T, HeLa, and RKO was measured (FIG. 3A, Table 3).
(§2) The inhibitory activity of compounds on glucose transport was analyzed by measuring the cell uptake of [3H]-2DG as previously described. Ulanovskaya et al., Chem. Biol. 2011, 18, 222-230. Briefly, cells were washed twice and incubated in low-glucose medium for 10 min. Cells were added drugs and incubated for another 10 min before adding [3H]-2DG. After 10 min incubation with [3H]-2DG, cells were washed twice and lysed with 0.2 N NaOH plus 0.2% SDS. The cell lysate was transferred to a new tube containing 1 mL of optiphase supermix. Glucose uptake was quantified with a scintillation counter.

[2] = tested on: HeLa; assay: [3H]-2DG uptake assay in HeLa cells; assay type: cell-based, human
Procedure: as §1, §2

[3] = tested on: RKO; assay: [3H]-2DG uptake assay in RKO cells; assay type: cell-based, human
Procedure: as §1, §2

[4] = tested on: A549; assay: Alamar blue cell proliferation assay, A549; assay type: cell-based, human; details: A549, 72 h; read-out: IC50 Assay B (Alamar blue cell proliferation)
Procedure: (§3) The effects of RgA on cell growth, survival, and cell death was then determined. […] Treatment with 5 μM of RgA caused an increase in G1 phase by approximately 23% in comparison to control and approximately 7% and 17% decreases in cells in S and G2/M phases, respectively. The induction in G1 phase cell cycle arrest by RgA is dose-dependent (FIG. 5A, FIG. 16). […] Jones and Thompson, Genes Dev. 2009, 23, 537-548. […] The IC50 values of RgA against several human cancer cell lines also was determined using the alamar blue cell proliferation assay.
(§4) Cells were seeded into a 96-well plate (Costar) in 180 μL culture media. After an overnight recovery, drugs were added and incubated for 72 h. After drug incubation, cells were added with 20 μL of alamar blue reagent and the plates were incubated at 37° C. for 6 h before reading the fluorescence (544 nm Ex/590 nm Em) with a plate reader. GraphPad Prism (v4.03) software was used to determine IC50 values using a four parameter logistic regression.

[5] = tested on: PANC10.05; assay: Alamar blue cell proliferation assay, PANC10.05; assay type: cell-based, human; details: PANC 10.05, 72 h; read-out: IC50 Assay B (Alamar blue cell proliferation)
Procedure: as §3, §4

[6] = tested on: human red blood cells; assay: [3H]-2DG uptake in human red blood cells; assay type: cell-based; details: human red blood cells that exclusively express GLUT1; read-out: IC50 [3H]-2DG uptake into red blood cells
Procedure: To determine which of the 17 rapafucin hits inhibited the transporter activity of GLUT1, an orthogonal glucose uptake assay using 2-deoxy-D-[3H] glucose ([3H]-2DG), a nonhydrolyzable, radioactive glucose analog, was employed. Each hit was separately incubated with A549 cells for 10 min before the amount of [3H]-2DG taken up by the cells was measured using scintillation counting. […] The effect of JW11-D2 on uptake of [3H]-2DG in human red blood cells that exclusively express GLUT1 was then determined. Helgerson and Carruthers, J. Biol. Chem. 1987, 262, 5464-5475. […] To further improve the potency of JW11-D2, a structure-activity relationship (SAR) study was performed by synthesizing 21 new analogs of JW11-D2 using different amino acid building blocks.
as §2

[7] = tested on: Jurkat T FKBP knock out cells; assay: [3H]-2DG uptake in Jurkat T FKBP12, FKBP51, FKBP52 knock out cells; assay type: cell-based, human; details: Jurkat T FKBP12, FKBP51, FKBP52 KO versus WT
Procedure: To further determine the dependence of RgA on endogenous FKBP, three major isoforms of FKBP, FKBP12, FKBP51 and FKBP52 were knocked out using CRISPR-Cas9 in Jurkat T cells. Guo et al., Nat. Chem. 2019, 11, 254-263. Unlike ENT1 inhibitor rapacodin, Guo et al., Nat.
as §2

[8] = tested on: MCF-7 cells; assay: LC/MS metabolite profiling of MCF-7 cells; assay type: cell-based, human
Procedure: To understand the metabolic impact of GLUT inhibition by RgA, the steady-state levels of 272 metabolites was determined using LC/MS, Liu et al, Anal. Chem. 2014, 86, 2175-2184, in MCF-7 cells upon treatment with RgA for 30 min and 6 h, respectively.
MCF-7 Cells were seeded into 6-well plate at a density of 5×10^5 cells per well, allowed to recover overnight and subsequently treated with RgA or vehicle control for 30 min and 6 h, respectively. Metabolites were extracted and analyzed as previously described. Liu et al., Anal. Chem. 2014, 86, 2175-2184.

[9] = tested on: HCC1954 xenograft; assay: HCC1954 breast cancer xenograft in nude mice; assay type: in vivo
Procedure: Given that RgA inhibited multiple isoforms of GLUTs, including GLUT1, 3, and 4, it raised the question of whether animals could tolerate RgA. As breast cancer cell lines are more sensitive to RgA than other cell lines (FIG. 6A and Table 3), the anti-breast cancer activity of RgA in vivo was assessed. Two breast cancer cell lines were selected for the xenograft experiment-MCF-7, an ER+, HER2− line, and HCC1954, an ER−, HER2+ breast line. NSG mice bearing MCF-7 tumors were given daily vehicle or RgA at a dose of 2 mg/kg for […].
All animal studies were conducted in compliance with all relevant ethical regulations set forth by the Johns Hopkins University Animal Care and Use Committee (ACUC). Female mice aged 4-6 weeks and weighing 18-22 g were maintained in a pathogen-free facility at Johns Hopkins Medical Institutions and cared for according to National Institutes of Health guidelines and under a protocol approved by the Johns Hopkins University Animal Care Committee. For the xenograft experiment of MCF-7, 17β-estradiol pellets (0.72 mg per pellet, 60-day release, Innovative Research of America, FL) were implanted at 5 days prior to tumor cell injection. […] The tumor volume was measured periodically using a Vernier caliper and calculated according to the modified ellipsoid formula: tumor volume (mm^3)=(short axis)^2×(long axis)×π/6. […]

[10] = MCF-7, 30 min and 6 h treatment

IC50 ([1]; MCF-7): 3.3 nM
IC50 [2]: 18.9 nM
IC50 [3]: 10.8 nM
IC50 [4]: 189 nM
IC50 [5]: 119 nM
IC50 [6]: 34.2 nM
SMILES: CCC(C)C1C(=O)NCC(=O)N(C)CCC=CC(=O)OCC(C)(C)C(=O)C(=O)N2CCCCC2C(=O)OC(CCc2ccc(OC)c(OC)c2)c2cccc(c2)NC(=O)CCC(=O)N(C)C(CC(C)C)C(=O)NC(Cc2ccccc2)C(=O)N1C (stereo not shown) [JW11-D2, Rapaglutin A]
effect of high concentration of FK506 and rapamycin on the inhibitory activity of RgA ([1]; MCF-7, 100 nM RgA, 20 μM FK506, 20 μM Rapamycin): negligible effect
effect of knockout of three FKBP isoforms on sensitivity of cells [7]: negligible effects
cellular ATP level and AMP/ATP ratio ([8]; MCF-7): increase in the AMP/ATP ratio
TCA cycle and redox status [8, 10]: not significantly affected
upper glycolytic and pentose phosphate pathway intermediates (G6P, F1,6-BP, DHAP, 6PGA, R5P, E4P) [8, 10]: significant decreases
tumor volume index on day 38 ([9]; HCC1954 in nude mice, 2 mg/kg intraperitoneally daily, vehicle 26.14): 12.97
weight loss and signs of adverse effects ([9]; HCC1954 xenograft mice, 2 mg/kg daily): no significant weight loss or any signs of adverse effects
